Reference: patent US5686486A, “4-hydroxy-benzopyran-2-ones and 4-hydroxy-cycloalkyl[b]pyran-2-ones useful to treat retroviral infections” (priority 1995, dated 1997)

Tests used:
HIV-1 protease [1] = biological target: T1, HIV-1 protease (Human immunodeficiency virus type 1 group M subtype B, UniProt P04585); assay: biochemical; conditions: read-out: HIV-1 FITC KI
Procedure, shortened: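 Ki from two-fold serial inhibitor dilutions (24–48 concentrations) with 40 nM HIV-1 protease stock and 200 μM substrate stock, 90 min at room temperature; stopped with avidin beads. Reference inhibitor run in parallel; Ki by nonlinear least-squares fit.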

HIV-1 protease [2] = biological target: T1, HIV-1 protease; assay: biochemical; conditions: for inhibition at 0.37 µM: read-out: HIV-1 Protease % Inhib, dose 0.370 uM; for inhibition at 1.1 µM: read-out: HIV-1 Protease % Inhib, dose 1.100 uM; for inhibition at 3.3 µM: read-out: HIV-1 Protease % Inhib, dose 3.300 uM; for inhibition at 10 µM: read-out: HIV-1 Protease % Inhib, dose 10.000 uM; for inhibition at 30 µM: read-out: HIV-1 Protease % Inhib, dose 30.000 uM; for inhibition at 0.123 µM: read-out: HIV-1 Protease % Inhib, dose 0.123 uM
Procedure, shortened: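 Biotinylated, FITC-labeled peptide substrate (20 μl of 0.2 μM) incubated with HIV-1 protease (10 μl of 0.1 μM) and compound in 0.1 M sodium acetate pH 5.5, 1.0 M NaCl, 0.05% NP-40, 1 h, room temperature, dark. Streptavidin beads then capture uncleaved substrate; filtered labeled product read by fluorescence, giving percent inhibition.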

Compound	Ki (HIV-1 protease [1])	inhibition at 0.37 µM (HIV-1 protease [2])	inhibition at 1.1 µM (HIV-1 protease [2])	inhibition at 3.3 µM (HIV-1 protease [2])	inhibition at 10 µM (HIV-1 protease [2])	inhibition at 30 µM (HIV-1 protease [2])	inhibition at 0.123 µM (HIV-1 protease [2])
O=c1oc2c(c(O)c1C(c1cccs1)C1CC1)CCCCCC2 (stereo not drawn) [Example 379, 3-(α-Cyclopropylthien-2-ylmethyl)-4-hydroxy-5,6,7,8,9,10-hexahydrocycloocta[b]pyran-2-one]	18.3 nM	48.6%	84.5%	96.2%	107%	113%	–
CCC(c1cccs1)c1c(O)c2c(oc1=O)CCCCCC2 (stereo not drawn) [Example 380, 3-(α-Ethylthien-2-ylmethyl)4-hydroxy-5,6,7,8,9,10-hexahydrocycloocta[b]pyran-2-one]	87.9 nM	21.5%	57.2%	82.5%	103%	108%	–
CCC(c1ccc(C)s1)c1c(O)c2c(oc1=O)CCCCCC2 (stereo not shown) [Example 381]	39.1 nM	24.1%	62.3%	80.4%	99.8%	96.7%	–
O=c1oc2c(c(O)c1C(c1ccc(CO)s1)C1CC1)CCCCCC2 (stereo not shown) [Example 384]	24.1 nM	47.4%	79.2%	92.9%	103%	102%	12.2%
O=c1oc2c(c(O)c1C(c1ccc(CCO)s1)C1CC1)CCCCCC2 (stereo not shown) [Example 385]	12.4 nM	48.5%	89.5%	104%	107%	107%	–
O=C(NCc1ccc(C(c2c(O)c3c(oc2=O)CCCCCC3)C2CC2)o1)OCc1ccccc1 (stereo not drawn) [Example 388, 3-(α-Cyclopropyl (5-(N-carbobenzoxy)aminomethyl)furfur-2-yl)-4-hydroxy-5,6,7,8,9,10-hexahydrocycloocta[b]pyran-2-one]	21.7 nM	42.8%	76%	96.5%	98.2%	93.7%	–
O=C(NCc1ccc(C(c2c(O)c3c(oc2=O)CCCCCC3)C2CC2)s1)OCc1ccccc1 (stereo not drawn) [Example 389, 3-(α-Cyclopropyl (5-(N-carbobenzoxy)aminomethyl)thien-2-ylmethyl)-4-hydroxy-5,6,7,8,9,10-hexahydrocycloocta[b]pyran-2-one]	46.2 nM	21.1%	58%	78.7%	96.4%	98.7%	–
Cc1sc(C(c2c(O)c3c(oc2=O)CCCCCC3)C2CC2)cc1CO (stereo not shown) [Example 394]	6.04 nM	102%	109%	115%	120%	123%	72.7%
O=c1oc2c(c(O)c1C(c1cccc(NS(=O)(=O)Nc3ccccc3)c1)C1CC1)CCCCCC2 (stereo not shown) [Example 397]	7.3 nM	92.9%	105%	109%	116%	113%	35.7%
CN(C)S(=O)(=O)Nc1cccc(C(c2c(O)c3c(oc2=O)CCCCCC3)C2CC2)c1 (stereo not shown) [Example 398, N'-[3-[cyclopropyl(5,6,7,8,9,10-hexahydro4-hydroxy-2-oxo-2H-cycloocta[b]pyran-3-yl)methyl]phenyl]-N,N-dimethyl-sulfamide]	41.5 nM	40.9%	74.2%	91.5%	105%	105%	10.5%
CN1CCN(S(=O)(=O)Nc2cccc(C(c3c(O)c4c(oc3=O)CCCCCC4)C3CC3)c2)CC1 (stereo not shown) [Example 399, N-[3-[Cyclopropyl(5,6,7,8,9,10-hexahydro-4-hydroxy-2-oxo-2H-cycloocta[b]pyran-3-yl)methyl]phenyl]4-methyl-1-piperazinesulfonamide]	186 nM	21.6%	54.1%	–	–	–	–
